# In US20170144969A1, “ANT[…], METHOD FOR PRODUCTION AND USES THEREOF” (priority 2014, published 2017):
# Legend:
# [1] = system: Klebsiella pneumoniae (ATCC 700603); assay: Minimum Inhibitory Concentration, micro-dilution broth; type: cell-based; conditions: 24 h, 37° C.
# E. coli (MTCC 443) = assay: as above; type: cell-based; conditions: 24 h, 37° C.
# human Red Blood Cells = assay: Haemolytic activity; conditions: human RBCs, 1 h at 37° C.
# [2] = system: Enterococcus faecium (ATCC 19634); assay: Minimum Inhibitory Concentration, micro-dilution broth; type: cell-based; conditions: 24 h, 37° C.; read-out: Minimum Inhibitory Concentration E. faceium
# MRSA (ATCC 33591) = assay: as above; type: cell-based, methicillin-resistant S. aureus; conditions: 24 h, 37° C.
# S. aureus (MTCC 737) = assay: as above; type: cell-based, Staphylococcus aureus; conditions: 24 h, 37° C.
# [3] = system: vancomycin resistant Enterococcus faecium (VRE) (ATCC 51559); assay: as above; type: cell-based; conditions: 24 h, 37° C.
SMILES,Minimum Inhibitory Concentration K. pneumonie [1] [µM],MIC (E. coli (MTCC 443)) [µM],HC50 (human Red Blood Cells; Table 3),MIC [2] [µM],Minimum Inhibitory Concentration MRSA (MRSA (ATCC 33591)) [µM],MIC (S. aureus (MTCC 737)) [µM],MIC [3] [µM],HC50 (human Red Blood Cells; Table 6) [µM]
"CCCCCCCCCCCCCC(=O)N(CCCNC(=O)[C@@H](N)CCCCN)CCCNC(=O)[C@@H](N)CCCCN.O=C(O)C(F)(F)F.O=C(O)C(F)(F)F [Compound 11, N,N-bis-[{3-(^LLys)amino}propyl]tetradecanamide bis(trifluoroacetate)]",9.3,5.9,588,2,14,7.8,1.5,
"CCCCCCCCCCCC(=O)N(CCCNC(=O)CN)CCCNC(=O)CN.O=C(O)C(F)(F)F.O=C(O)C(F)(F)F [Compound 42, N,N-bis-[{3-(Gly)amido}propyl]dodecanamide bis(trifluoroacetate)]",>340,340,,86,61,67,112,400
"CCCCCCCCCCCCCC(=O)N(CCCNC(=O)CN)CCCNC(=O)CN.O=C(O)C(F)(F)F.O=C(O)C(F)(F)F [Compound 43, N,N-bis-[{3-(Gly)amido}propyl]tetradecanamide bis(trifluoroacetate)]",>365,16,,8.8,10.8,12.5,13,157
"CCCCCCCCCCCCCCCC(=O)N(CCCNC(=O)CN)CCCNC(=O)CN.O=C(O)C(F)(F)F.O=C(O)C(F)(F)F [Compound 44, N,N-bis-[{3-(Gly)amido}propyl]hexadecanamide bis(trifluoroacetate)]",>365,5.9,,4,10,6.5,3.3,90
"CCCCCCCCCCCC(=O)N(CCCNC(=O)[C@H](C)N)CCCNC(=O)[C@H](C)N.O=C(O)C(F)(F)F.O=C(O)C(F)(F)F [Compound 45, N,N-bis-[{3-(^LAla)amido}propyl]dodecanamide bis(trifluoroacetate)]",>365,282,,73,133,95,82,562
"CCCCCCCCCCCCCC(=O)N(CCCNC(=O)[C@H](C)N)CCCNC(=O)[C@H](C)N.O=C(O)C(F)(F)F.O=C(O)C(F)(F)F [Compound 46, N,N-bis-[{3-(^LAla)amido}propyl]tetradecanamide bis(trifluoroacetate)]",>360,17,,9,17,19,7.6,93
"CCCCCCCCCCCCCCCC(=O)N(CCCNC(=O)[C@H](C)N)CCCNC(=O)[C@H](C)N.O=C(O)C(F)(F)F.O=C(O)C(F)(F)F [Compound 47, N,N-bis-[{3-(^LAla)amido}propyl]hexadecanamide bis(trifluoroacetate)]",12,4,,3,6,5.6,3,68
"CCCCCCCCCCCC(=O)N(CCCNC(=O)[C@@H](N)C(C)C)CCCNC(=O)[C@@H](N)C(C)C.O=C(O)C(F)(F)F.O=C(O)C(F)(F)F [Compound 48, N,N-bis-[{3-(Val)amido}propyl]dodecanamide bis(trifluoroacetate)]",58,18,,25,40,28,25,264
"CCCCCCCCCCCCCC(=O)N(CCCNC(=O)[C@@H](N)C(C)C)CCCNC(=O)[C@@H](N)C(C)C.O=C(O)C(F)(F)F.O=C(O)C(F)(F)F [Compound 49, N,N-bis-[{3-(^LVal)amido}propyl]tetradecanamide bis(trifluoroacetate)]",7.3,7,,3.6,3.4,4,4,134
"CCCCCCCCCCCCCCCC(=O)N(CCCNC(=O)[C@@H](N)C(C)C)CCCNC(=O)[C@@H](N)C(C)C.O=C(O)C(F)(F)F.O=C(O)C(F)(F)F [Compound 50, N,N-bis-[{3-(^LVal)amido}propyl]hexadecanamide bis(trifluoroacetate)]",>314,10,,1.7,1.9,2.7,1.4,86
"CCCCCCCCCCCC(=O)N(CCCNC(=O)[C@@H](N)[C@@H](C)CC)CCCNC(=O)[C@@H](N)[C@@H](C)CC.O=C(O)C(F)(F)F.O=C(O)C(F)(F)F [Compound 51, N,N-bis-[{3-(^LIle)amido}propyl]dodecanamide bis(trifluoroacetate)]",28,11,,8,5.7,8,11.3,95
"CCCCCCCCCCCCCC(=O)N(CCCNC(=O)[C@@H](N)[C@@H](C)CC)CCCNC(=O)[C@@H](N)[C@@H](C)CC.O=C(O)C(F)(F)F.O=C(O)C(F)(F)F [Compound 52, N,N-bis-[{3-(^LIle)amido}propyl]tetradecanamide bis(trifluoroacetate)]",300,5,,4,2.9,3,2.6,64
"CCCCCCCCCCCC(=O)N(CCCNC(=O)[C@@H](N)CC(C)C)CCCNC(=O)[C@@H](N)CC(C)C.O=C(O)C(F)(F)F.O=C(O)C(F)(F)F [Compound 54, N,N-bis-[{3-(^LLeu)amido}propyl]dodecanamide bis(trifluoroacetate)]",18,8.8,,8.6,8.9,5.8,5,305
"CCCCCCCCCCCCCCCC(=O)N(CCCNC(=O)[C@@H](N)CC(C)C)CCCNC(=O)[C@@H](N)CC(C)C.O=C(O)C(F)(F)F.O=C(O)C(F)(F)F [Compound 56, N,N-bis-[{3-(^LLeu)amido}propyl]hexadecanamide bis(trifluoroacetate)]",280,20,,3.4,2.9,3.8,3.4,95
